Measured values as given in article PMC12259978 (Scientific Reports, 2025).

What was measured:
[1] = target: T1, tyrosinase (Agaricus bisporus, UniProt C7FF04); test: Tyrosinase inhibitory assay; type: biochemical; settings: read-out: % inhibition of tyrosinase
[2] = target: T1, tyrosinase; test: Enzyme kinetic study; type: biochemical

T1 sequence (C7FF04 whole entry): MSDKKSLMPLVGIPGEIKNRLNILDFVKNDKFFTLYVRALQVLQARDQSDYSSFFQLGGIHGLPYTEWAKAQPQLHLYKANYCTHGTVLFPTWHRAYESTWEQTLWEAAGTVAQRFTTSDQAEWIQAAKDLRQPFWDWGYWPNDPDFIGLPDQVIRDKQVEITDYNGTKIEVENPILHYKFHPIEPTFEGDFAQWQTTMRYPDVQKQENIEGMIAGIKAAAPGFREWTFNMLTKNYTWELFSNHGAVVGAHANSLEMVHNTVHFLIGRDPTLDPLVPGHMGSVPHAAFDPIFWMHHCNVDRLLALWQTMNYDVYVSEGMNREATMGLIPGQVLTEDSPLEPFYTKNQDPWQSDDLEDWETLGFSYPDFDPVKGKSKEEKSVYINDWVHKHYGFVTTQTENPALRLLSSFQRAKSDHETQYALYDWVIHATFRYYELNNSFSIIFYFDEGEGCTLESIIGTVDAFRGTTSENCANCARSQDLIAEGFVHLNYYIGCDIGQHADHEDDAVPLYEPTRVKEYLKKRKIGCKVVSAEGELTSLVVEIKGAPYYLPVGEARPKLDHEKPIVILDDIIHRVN

Compound	inhibition at 50 µM [1]	Ki [2]	type of inhibition ([2]; Lineweaver-Burk plot, Vmax unchanged, Km increased)
O=C(CSc1nc2ccccc2cc1C=Nn1c(S)nnc1-c1ccccc1)Nc1ccccc1 [12a, 2-((3-(((3-mercapto-5-phenyl-4H-1,2,4-triazol-4-yl)imino)methyl)quinolin-2-yl)thio)-N-phenylacetamide]	32.2%	–	–
O=C(CSc1nc2ccccc2cc1C=Nn1c(S)nnc1-c1ccccc1)Nc1ccccc1Cl [12b, N-(2-chlorophenyl)-2-((3-(((3-mercapto-5-phenyl-4H-1,2,4-triazol-4-yl)imino)methyl)quinolin-2-yl)thio)acetamide]	55.7%	–	–
O=C(CSc1nc2ccccc2cc1C=Nn1c(S)nnc1-c1ccccc1)Nc1ccc(Cl)cc1 [12d, N-(4-chlorophenyl)-2-((3-(((3-mercapto-5-phenyl-4H-1,2,4-triazol-4-yl)imino)methyl)quinolin-2-yl)thio)acetamide]	66%	–	–
O=C(CSc1nc2ccccc2cc1C=Nn1c(S)nnc1-c1ccccc1)Nc1ccc(Cl)cc1Cl [12e, N-(2,4-dichlorophenyl)-2-((3-(((3-mercapto-5-phenyl-4H-1,2,4-triazol-4-yl)imino)methyl)quinolin-2-yl)thio)acetamide]	48.3%	–	–
COc1ccc(NC(=O)CSc2nc3ccccc3cc2C=Nn2c(S)nnc2-c2ccccc2)cc1 [12f, 2-((3-(((3-Mercapto-5-phenyl-4H-1,2,4-triazol-4-yl)imino)methyl)quinolin-2-yl)thio)-N-(4-methoxyphenyl)acetamide]	40.9%	–	–

Further lines, results first:

inhibition at 50 µM [1]	Ki [2]	type of inhibition ([2]; Lineweaver-Burk plot, Vmax unchanged, Km increased)	Compound
51.4%	–	–	Cc1ccc(NC(=O)CSc2nc3ccccc3cc2C=Nn2c(S)nnc2-c2ccccc2)cc1 [12g, 2-((3-(((3-Mercapto-5-phenyl-4H-1,2,4-triazol-4-yl)imino)methyl)quinolin-2-yl)thio)-N-(p-tolyl)acetamide]
46%	–	–	Cc1ccccc1NC(=O)CSc1nc2ccccc2cc1C=Nn1c(S)nnc1-c1ccccc1 [12h, 2-((3-(((3-Mercapto-5-phenyl-4H-1,2,4-triazol-4-yl)imino)methyl)quinolin-2-yl)thio)-N-(o-tolyl)acetamide]
43.8%	–	–	Cc1cccc(NC(=O)CSc2nc3ccccc3cc2C=Nn2c(S)nnc2-c2ccccc2)c1C [12i, N-(2,3-dimethylphenyl)-2-((3-(((3-mercapto-5-phenyl-4H-1,2,4-triazol-4-yl)imino)methyl)quinolin-2-yl)thio)acetamide]
86.6%	9.06 µM	competitive inhibitor	O=C(CSc1nc2ccccc2cc1C=Nn1c(S)nnc1-c1ccccc1)NCCc1ccccc1 [12j, 2-((3-(((3-Mercapto-5-phenyl-4H-1,2,4-triazol-4-yl)imino)methyl)quinolin-2-yl)thio)-N-phenethylacetamide]
